Data reported in patent EP3325465B1, “PESTICIDALLY ACTIVE PYRAZOLE DERIVATIVES” (Syngenta Participations AG, priority 2015, dated 2017).
Read-outs that look alike come from different tables or passages of the source.

Key:
Format in all cases: in vivo
[1] = system: Spodoptera littoralis (Egyptian cotton leaf worm); test: Spodoptera littoralis cotton leaf disc spray test, L1 larvae; conditions: foliar, 72 h
Excerpt: (§1) The pesticidal/insecticidal properties of the compounds according to embodiments 1 or 2 can be illustrated via the following tests: Spodoptera littoralis (Egyptian cotton leaf worm) • Cotton leaf discs were placed onto agar in 24-well microtiter plates and sprayed with aqueous test solutions prepared from 10'000 ppm DMSO stock solutions. After drying the leaf discs were infested with five L1 larvae. […] Plutella xylostella (Diamond back moth): 24-well microtiter plates with artificial diet were treated with aqueous test solutions prepared from 10'000 ppm DMSO stock solutions by pipetting. After drying, the plates were infested with L2 larvae (10 to 15 per well). The samples were assessed for mortality and growth inhibition in comparison to untreated samples 5 days after infestation. […] Diabrotica balteata, (Corn root worm) • Maize sprouts placed onto an agar layer in 24-well microtiter plates were treated with aqueous test solutions prepared from 10'000 ppm DMSO stock solutions by spraying. After drying, the plates were infested with L2 larvae (6 to 10 per well). […] Thrips tabaci (Onion thrips): Sunflower leaf discs were placed on agar in 24-well microtiter plates and sprayed with aqueous test solutions prepared from 10'000 ppm DMSO stock solutions. After drying the leaf discs were infested with a thrips population of mixed ages. The samples were assessed for mortality 6 days after infestation. […] Tetranychus urticae (Two-spotted spider mite): Bean leaf discs on agar in 24-well microtiter plates were sprayed with aqueous test solutions prepared from 10'000 ppm DMSO stock solutions. After drying the leaf discs were infested with a mite population of mixed ages. The samples were assessed for mortality on mixed population (mobile stages) 8 days after infestation. […] Euschistus heros (Neotropical Brown Stink Bug): • Two weeks old soybean plants were sprayed in a turn table spray chamber with the diluted spray solutions. After drying 2 soybean seeds were added and plants were infested with 10 N2 nymphs of the neotropical brown stink bug Euschistus heros in plastic test boxes. The samples were assessed for mortality in comparison to untreated samples 5 days after infestation. • The following compounds gave at least 80% mortality of Euschistus heros at an application rate of 12.5 ppm: Compounds 3 , 4 , 8 , 39 , 43 , 44 , 46 , 75 , 76 , 77 , 78 , 79 , 80 , 81 , 82 , 88 , 90 , 93 and 95 . Myzus persicae (Green peach aphid): Sunflower leaf discs were placed on agar in a 24-well microtiter plate and sprayed with test solutions at an application rate of 200 ppm. After drying, the leaf discs were infested with an aphid population of mixed ages. After an incubation period of 6 DAT, samples were checked for mortality. The following compounds gave at least 50% mortality of Myzus persicae: Compounds 3 , 4 , 8 , 43 , 44 , 75 , 76 , 77 , 80 , 81 , 90 and 92 . Myzus persicae (Green peach aphid): • Test compounds were applied by pipette into 24 well plates and mixed with Sucrose solution. Application rate: 12.5ppm. The plates were closed with a stretched parafilm. A plastic stencil with 24 holes is placed onto the plate and infested pea seedlings were placed directly on the Parafilm. The infested plate is closed with a gel blotting paper and another plastic stencil and then turned upside down. […]

[2] = system: Plutella xylostella (Diamond back moth); test: Plutella xylostella artificial diet test, L2 larvae; conditions: 120 h, application rate of 200 ppm, mortality and growth inhibition 5 days after infestation
Excerpt: as §1

[3] = system: Diabrotica balteata, (Corn root worm); test: Diabrotica balteata maize sprout spray test, L2 larvae; conditions: 96 h
Excerpt: as §1

[4] = system: Tetranychus urticae (Two-spotted spider mite); test: Tetranychus urticae bean leaf disc spray test; conditions: foliar, 192 h, application rate of 200 ppm, mortality on mixed population (mobile stages) 8 days after infestation
Excerpt: as §1

[5] = system: Thrips tabaci (Onion thrips); test: Thrips tabaci sunflower leaf disc spray test; conditions: foliar, 144 h, application rate of 200 ppm, mortality 6 days after infestation, mixed ages
Excerpt: as §1

[6] = system: Myzus persicae (Green peach aphid); test: Myzus persicae sucrose solution / Parafilm feeding test; conditions: 120 h, read-out: mortality of Myzus persicae
Excerpt: as §1

[7] = system: Myzus persicae (Green peach aphid); test: Myzus persicae sunflower leaf disc spray test; conditions: foliar, 144 h, read-out: mortality of Myzus persicae
Excerpt: as §1

[8] = system: Euschistus heros (Neotropical Brown Stink Bug); test: Euschistus heros soybean plant spray test, N2 nymphs; conditions: 120 h, read-out: mortality of Euschistus heros
Excerpt: as §1

[9] = application rate of 200 ppm, 3 days after infestation, L1 larvae, read-out: mortality
[10] = application rate of 200 ppm, 4 days after infestation, L2 larvae, read-out: mortality
[11] = application rate of 200 ppm, leaf disc spray, 6 DAT
[12] = application rate of 12.5 ppm, 5 days after infestation, N2 nymphs
[13] = Application rate: 12.5ppm, sucrose solution, 5 days after infestation

Compound | mortality at 200 ppm [1] [%] | pest or weed control at 200 ppm [2] [%] | mortality at 200 ppm [3] [%] | pest or weed control at 200 ppm [4] [%] | pest or weed control at 200 ppm [5] [%] | mortality at 12.5 ppm [6] [%] | mortality at 200 ppm [7] [%] | mortality at 12.5 ppm [8] [%] | mortality at 200 ppm [1, 9] [%] | mortality at 200 ppm [3, 10] [%] | mortality at 200 ppm [7, 11] [%] | mortality at 12.5 ppm [8, 12] [%] | mortality at 12.5 ppm [6, 13] [%]
Cn1nc(C(F)(F)C(F)(F)F)c(C(F)(F)F)c1-c1cc(-c2ccc(Cl)c(C(=O)NC3(C#N)CC3)c2)no1 [Compound 3, 2-chloro-N-(1-cyanocyclopropyl)-5-[5-[2-methyl-5-(1,1,2,2,2-pentafluoroethyl)-4-(trifluoromethyl)pyrazol-3-yl]isoxazol-3-yl]benzamide] | ≥ 80 | ≥ 80 | ≥ 80 | ≥ 80 | ≥ 80 | ≥ 50 | ≥ 50 | ≥ 80 |  |  |  |  | 
Cn1nc(C(F)(F)C(F)(F)F)c(C(F)(F)F)c1-c1cc(-c2ccc(Cl)c(C(=O)NC3CC3)c2)on1 [Compound 8, 2-chloro-N-cyclopropyl-5-[3-[2-methyl-5-(1,1,2,2,2-pentafluoroethyl)-4-(trifluoromethyl)pyrazol-3-yl]isoxazol-5-yl]benzamide] |  | ≥ 80 |  | ≥ 80 | ≥ 80 |  |  |  | ≥ 80 | ≥ 80 | ≥ 50 | ≥ 80 | 
Cn1nc(-c2ccc(Cl)c(C(=O)NC3CC3)c2)cc1-c1c(C(F)(F)F)c(C(F)(F)C(F)(F)F)nn1C [Compound 39, 2-chloro-N-cyclopropyl-5-[1-methyl-5-[2-methyl-5-(1,1,2,2,2-pentafluoroethyl)-4-(trifluoromethyl)pyrazol-3-yl]pyrazol-3-yl]benzamide] |  | ≥ 80 |  | ≥ 80 | ≥ 80 |  |  |  | ≥ 80 | ≥ 80 |  | ≥ 80 | ≥ 80
Cn1nc(C(F)(F)C(F)(F)F)c(C(F)(F)F)c1-c1cc(-c2ccc(Cl)c(C(=O)NC3CC3)c2)sn1 [Compound 43, 2-chloro-N-cyclopropyl-5-[3-[2-methyl-5-(1,1,2,2,2-pentafluoroethyl)-4-(trifluoromethyl)pyrazol-3-yl]isothiazol-5-yl]benzamide] |  | ≥ 80 |  | ≥ 80 | ≥ 80 |  |  |  | ≥ 80 | ≥ 80 | ≥ 50 | ≥ 80 | ≥ 80
Cn1nc(C(F)(F)C(F)(F)F)c(C(F)(F)F)c1-c1cc(-c2ccc(Cl)c(C(=O)NC3(C(=O)O)CC3)c2)on1 [Compound 75, 1-[[2-chloro-5-[3-[2-methyl-5-(1,1,2,2,2-pentafluoroethyl)-4-(trifluoromethyl)pyrazol-3-yl]isoxazol-5-yl]benzoyl]amino]cyclopropanecarboxylic acid] |  |  |  |  | ≥ 80 |  |  |  |  | ≥ 80 | ≥ 50 | ≥ 80 | ≥ 80
Cn1nc(C(F)(F)C(F)(F)F)c(C(F)(F)F)c1-c1cc(-c2ccc(Cl)c(C(=O)NC3(C(N)=S)CC3)c2)on1 [Compound 76, N-(1-carbamothioylcyclopropyl)-2-chloro-5-[3-[2-methyl-5-(1,1,2,2,2-pentafluoroethyl)-4-(trifluoromethyl)pyrazol-3-yl]isoxazol-5-yl]benzamide] |  | ≥ 80 |  | ≥ 80 | ≥ 80 |  |  |  | ≥ 80 | ≥ 80 | ≥ 50 | ≥ 80 | ≥ 80
Cn1nc(C(F)(F)C(F)(F)F)c(C(F)(F)F)c1-c1cc(-c2ccc(Cl)c(C(=O)NC3(C(N)=O)CC3)c2)on1 [Compound 77, N-(1-carbamoylcyclopropyl)-2-chloro-5-[3-[2-methyl-5-(1,1,2,2,2-pentafluoroethyl)-4-(trifluoromethyl)pyrazol-3-yl]isoxazol-5-yl]benzamide] |  | ≥ 80 |  | ≥ 80 | ≥ 80 |  |  |  | ≥ 80 |  | ≥ 50 | ≥ 80 | ≥ 80
Cn1nc(C(F)(F)C(F)(F)F)c(C(F)(F)F)c1-c1cc(-c2ccc(Cl)c(C(=O)N[C@H]3C[C@@H]3C(F)(F)F)c2)on1 [Compound 80, 2-chloro-5-[3-[2-methyl-5-(1,1,2,2,2-pentafluoroethyl)-4-(trifluoromethyl)pyrazol-3-yl]isoxazol-5-yl]-N-[(1S,2S)-2-(trifluoromethyl)cyclopropyl]benzamide] |  | ≥ 80 |  | ≥ 80 | ≥ 80 |  |  |  | ≥ 80 | ≥ 80 | ≥ 50 | ≥ 80 | 
Cn1nc(C(F)(F)C(F)(F)F)c(C(F)(F)F)c1-c1cc(-c2ccc(Cl)c(C(=O)NC3CC3F)c2)on1 (centres unmarked) [Compound 81, 2-chloro-N-(2-fluorocyclopropyl)-5-[3-[2-methyl-5-(1,1,2,2,2-pentafluoroethyl)-4-(trifluoromethyl)pyrazol-3-yl]isoxazol-5-yl]benzamide] |  | ≥ 80 |  | ≥ 80 | ≥ 80 |  |  |  | ≥ 80 | ≥ 80 | ≥ 50 | ≥ 80 | ≥ 80
CCNC(=O)c1cc(-c2cc(-c3c(C(F)(F)F)c(C(F)(F)C(F)(F)F)nn3C)no2)ccc1Cl [Compound 90, 2-chloro-N-ethyl-5-[3-[2-methyl-5-(1,1,2,2,2-pentafluoroethyl)-4-(trifluoromethyl)pyrazol-3-yl]isoxazol-5-yl]benzamide] |  | ≥ 80 |  | ≥ 80 | ≥ 80 |  |  |  | ≥ 80 | ≥ 80 | ≥ 50 | ≥ 80 | 
CNC(=O)c1cc(-c2cc(-c3c(C(F)(F)F)c(C(F)(F)C(F)(F)F)nn3C)no2)ccc1Cl [Compound 92, 2-chloro-N-methyl-5-[3-[2-methyl-5-(1,1,2,2,2-pentafluoroethyl)-4-(trifluoromethyl)pyrazol-3-yl]isoxazol-5-yl]benzamide] |  | ≥ 80 |  | ≥ 80 | ≥ 80 |  |  |  | ≥ 80 | ≥ 80 | ≥ 50 |  | ≥ 80
CC(C)NC(=O)c1cc(-c2cc(-c3c(C(F)(F)F)c(C(F)(F)C(F)(F)F)nn3C)no2)ccc1Cl [Compound 93, 2-chloro-N-isopropyl-5-[3-[2-methyl-5-(1,1,2,2,2-pentafluoroethyl)-4-(trifluoromethyl)pyrazol-3-yl]isoxazol-5-yl]benzamide] |  | ≥ 80 |  | ≥ 80 | ≥ 80 |  |  |  | ≥ 80 | ≥ 80 |  | ≥ 80 | ≥ 80
